ChEMBL document CHEMBL4665869, “New thiazolopyrimidine as anticancer agents: Synthesis, biological evaluation, DNA binding, molecular modeling and ADMET study” (Bioorg Med Chem Lett, 2020)
Converted amounts (≈) assume the structure as drawn.

Tests used:
LOX IMVI = test: Growth inhibition of human LOX IMVI cells at 10 uM relative to control; assay type: functional; conditions: read-out: GI
MDA-MB-468 = test: Growth inhibition of human MDA-MB-468 cells at 10 uM relative to control; assay type: functional; conditions: read-out: GI
T47D = test: Growth inhibition of human T47D cells at 10 uM relative to control; assay type: functional; conditions: read-out: GI
CCRF-CEM = test: Growth inhibition of human CCRF-CEM cells at 10 uM relative to control; assay type: functional; conditions: read-out: GI
HL-60(TB) = test: Growth inhibition of human HL-60(TB) cells at 10 uM relative to control; assay type: functional; conditions: read-out: GI
K562 = test: Growth inhibition of human K562 cells at 10 uM relative to control; assay type: functional; conditions: read-out: GI
MOLT-4 = test: Growth inhibition of human MOLT-4 cells at 10 uM relative to control; assay type: functional; conditions: read-out: GI
RPMI-8226 = test: Growth inhibition of human RPMI-8226 cells at 10 uM relative to control; assay type: functional; conditions: read-out: GI
SR = test: Growth inhibition of human SR cells at 10 uM relative to control; assay type: functional; conditions: read-out: GI
A549 = test: Growth inhibition of human A549 cells at 10 uM relative to control; assay type: functional; conditions: read-out: GI
HOP-62 = test: Growth inhibition of human HOP-62 cells at 10 uM relative to control; assay type: functional; conditions: read-out: GI
HOP-92 = test: Growth inhibition of human HOP-92 cells at 10 uM relative to control; assay type: functional; conditions: read-out: GI
NCI-H226 = test: Growth inhibition of human NCI-H226 cells at 10 uM relative to control; assay type: functional; conditions: read-out: GI
NCI-H23 = test: Growth inhibition of human NCI-H23 cells at 10 uM relative to control; assay type: functional; conditions: read-out: GI
NCI-H322M = test: Growth inhibition of human NCI-H322M cells at 10 uM relative to control; assay type: functional; conditions: read-out: GI
NCI-H460 = test: Growth inhibition of human NCI-H460 cells at 10 uM relative to control; assay type: functional; conditions: read-out: GI
NCI-H522 = test: Growth inhibition of human NCI-H522 cells at 10 uM relative to control; assay type: functional; conditions: read-out: GI
SW-620 = test: Growth inhibition of human SW-620 cells at 10 uM relative to control; assay type: functional; conditions: read-out: GI
COLO 205 = test: Growth inhibition of human COLO 205 cells at 10 uM relative to control; assay type: functional; conditions: read-out: GI
HCC 2998 = test: Growth inhibition of human HCC 2998 cells at 10 uM relative to control; assay type: functional; conditions: read-out: GI
HCT-116 = test: Growth inhibition of human HCT-116 cells at 10 uM relative to control; assay type: functional; conditions: read-out: GI
HCT-15 = test: Growth inhibition of human HCT-15 cells at 10 uM relative to control; assay type: functional; conditions: read-out: GI
HT-29 = test: Growth inhibition of human HT-29 cells at 10 uM relative to control; assay type: functional; conditions: read-out: GI
KM12 = test: Growth inhibition of human KM12 cells at 10 uM relative to control; assay type: functional; conditions: read-out: GI
SF-268 = test: Growth inhibition of human SF-268 cells at 10 uM relative to control; assay type: functional; conditions: read-out: GI
SF-295 = test: Growth inhibition of human SF-295 cells at 10 uM relative to control; assay type: functional; conditions: read-out: GI
SF-539 = test: Growth inhibition of human SF-539 cells at 10 uM relative to control; assay type: functional; conditions: read-out: GI
SNB-19 = test: Growth inhibition of human SNB-19 cells at 10 uM relative to control; assay type: functional; conditions: read-out: GI
SNB-75 = test: Growth inhibition of human SNB-75 cells at 10 uM relative to control; assay type: functional; conditions: read-out: GI
U-251 = test: Growth inhibition of human U-251 cells at 10 uM relative to control; assay type: functional; conditions: read-out: GI
Malme-3M = test: Growth inhibition of human Malme-3M cells at 10 uM relative to control; assay type: functional; conditions: read-out: GI
M14 = test: Growth inhibition of human M14 cells at 10 uM relative to control; assay type: functional; conditions: read-out: GI
MDA-MB-435 = test: Growth inhibition of human MDA-MB-435 cells at 10 uM relative to control; assay type: functional; conditions: read-out: GI
SK-MEL-2 = test: Growth inhibition of human SK-MEL-2 cells at 10 uM relative to control; assay type: functional; conditions: read-out: GI
SK-MEL-28 = test: Growth inhibition of human SK-MEL-28 cells at 10 uM relative to control; assay type: functional; conditions: read-out: GI
SK-MEL-5 = test: Growth inhibition of human SK-MEL-5 cells at 10 uM relative to control; assay type: functional; conditions: read-out: GI
UACC-257 = test: Growth inhibition of human UACC-257 cells at 10 uM relative to control; assay type: functional; conditions: read-out: GI
UACC-62 = test: Growth inhibition of human UACC-62 cells at 10 uM relative to control; assay type: functional; conditions: read-out: GI
IGROV-1 = test: Growth inhibition of human IGROV-1 cells at 10 uM relative to control; assay type: functional; conditions: read-out: GI
OVCAR-4 = test: Growth inhibition of human OVCAR-4 cells at 10 uM relative to control; assay type: functional; conditions: read-out: GI
OVCAR-5 = test: Growth inhibition of human OVCAR-5 cells at 10 uM relative to control; assay type: functional; conditions: read-out: GI
OVCAR-8 = test: Growth inhibition of human OVCAR-8 cells at 10 uM relative to control; assay type: functional; conditions: read-out: GI
NCI/ADR-RES = test: Growth inhibition of human NCI/ADR-RES cells at 10 uM relative to control; assay type: functional; conditions: read-out: GI
SK-OV-3 = test: Growth inhibition of human SK-OV-3 cells at 10 uM relative to control; assay type: functional; conditions: read-out: GI
786-0 = test: Growth inhibition of human 786-0 cells at 10 uM relative to control; assay type: functional; conditions: read-out: GI
A498 = test: Growth inhibition of human A498 cells at 10 uM relative to control; assay type: functional; conditions: read-out: GI
ACHN = test: Growth inhibition of human ACHN cells at 10 uM relative to control; assay type: functional; conditions: read-out: GI
CAKI-1 = test: Growth inhibition of human CAKI-1 cells at 10 uM relative to control; assay type: functional; conditions: read-out: GI
RXF 393 = test: Growth inhibition of human RXF 393 cells at 10 uM relative to control; assay type: functional; conditions: read-out: GI
SN12C = test: Growth inhibition of human SN12C cells at 10 uM relative to control; assay type: functional; conditions: read-out: GI
TK-10 = test: Growth inhibition of human TK-10 cells at 10 uM relative to control; assay type: functional; conditions: read-out: GI
UO-31 = test: Growth inhibition of human UO-31 cells at 10 uM relative to control; assay type: functional; conditions: read-out: GI
PC-3 = test: Growth inhibition of human PC-3 cells at 10 uM relative to control; assay type: functional; conditions: read-out: GI
DU-145 = test: Growth inhibition of human DU-145 cells at 10 uM relative to control; assay type: functional; conditions: read-out: GI
MCF7 = test: Growth inhibition of human MCF7 cells at 10 uM relative to control; assay type: functional; conditions: read-out: GI
MDA-MB-231 = test: Growth inhibition of human MDA-MB-231 cells at 10 uM relative to control; assay type: functional; conditions: read-out: GI
Hs-578T = test: Growth inhibition of human Hs-578T cells at 10 uM relative to control; assay type: functional; conditions: read-out: GI
BT-549 = test: Growth inhibition of human BT-549 cells at 10 uM relative to control; assay type: functional; conditions: read-out: GI
DNA = test: Displacement of methyl green from DNA (unknown origin) assessed as DNA intercalation after 24 hrs by colorimetric assay; assay type: nucleic-acid assay

CC1=CSC2=NC(/C=C/c3cccs3)=CC(c3cccs3)N12 (centres undefined)
inhibition of growth at 10 µM (LOX IMVI): < 10% | inhibition of growth at 10 µM (MDA-MB-468): < 10% | inhibition of growth at 10 µM (T47D): < 10% | inhibition of growth at 10 µM (CCRF-CEM): < 10% | inhibition of growth at 10 µM (HL-60(TB)): < 10% | inhibition of growth at 10 µM (K562): < 10% | inhibition of growth at 10 µM (MOLT-4): < 10% | inhibition of growth at 10 µM (RPMI-8226): < 10% | inhibition of growth at 10 µM (SR): < 10% | inhibition of growth at 10 µM (A549): < 10% | inhibition of growth at 10 µM (HOP-62): < 10% | inhibition of growth at 10 µM (HOP-92): < 10% | inhibition of growth at 10 µM (NCI-H226): < 10% | inhibition of growth at 10 µM (NCI-H23): < 10% | inhibition of growth at 10 µM (NCI-H322M): < 10% | inhibition of growth at 10 µM (NCI-H460): < 10% | inhibition of growth at 10 µM (NCI-H522): 13.3% | inhibition of growth at 10 µM (SW-620): < 10% | inhibition of growth at 10 µM (COLO 205): < 10% | inhibition of growth at 10 µM (HCC 2998): < 10% | inhibition of growth at 10 µM (HCT-116): < 10% | inhibition of growth at 10 µM (HCT-15): < 10% | inhibition of growth at 10 µM (HT-29): < 10% | inhibition of growth at 10 µM (KM12): < 10% | inhibition of growth at 10 µM (SF-268): < 10% | inhibition of growth at 10 µM (SF-295): < 10% | inhibition of growth at 10 µM (SF-539): < 10% | inhibition of growth at 10 µM (SNB-19): < 10% | inhibition of growth at 10 µM (SNB-75): < 10% | inhibition of growth at 10 µM (U-251): < 10% | inhibition of growth at 10 µM (Malme-3M): < 10% | inhibition of growth at 10 µM (M14): < 10% | inhibition of growth at 10 µM (MDA-MB-435): < 10% | inhibition of growth at 10 µM (SK-MEL-2): < 10% | inhibition of growth at 10 µM (SK-MEL-28): < 10% | inhibition of growth at 10 µM (SK-MEL-5): < 10% | inhibition of growth at 10 µM (UACC-257): < 10% | inhibition of growth at 10 µM (UACC-62): < 10% | inhibition of growth at 10 µM (IGROV-1): < 10% | inhibition of growth at 10 µM (OVCAR-4): < 10% | inhibition of growth at 10 µM (OVCAR-5): < 10% | inhibition of growth at 10 µM (OVCAR-8): < 10% | inhibition of growth at 10 µM (NCI/ADR-RES): < 10% | inhibition of growth at 10 µM (SK-OV-3): < 10% | inhibition of growth at 10 µM (786-0): < 10% | inhibition of growth at 10 µM (A498): < 10% | inhibition of growth at 10 µM (ACHN): < 10% | inhibition of growth at 10 µM (CAKI-1): < 10% | inhibition of growth at 10 µM (RXF 393): < 10% | inhibition of growth at 10 µM (SN12C): < 10% | inhibition of growth at 10 µM (TK-10): < 10% | inhibition of growth at 10 µM (UO-31): < 10% | inhibition of growth at 10 µM (PC-3): < 10% | inhibition of growth at 10 µM (DU-145): < 10% | inhibition of growth at 10 µM (MCF7): < 10% | inhibition of growth at 10 µM (MDA-MB-231): < 10% | inhibition of growth at 10 µM (Hs-578T): < 10% | inhibition of growth at 10 µM (BT-549): < 10% | IC50 (DNA): 39.82 µg/mL (≈ 116 µM)
